Consider 14 compounds from paper PMC9307983 (Acta Naturae, 2022).

Read-outs that look alike come from different tables or passages of the source. Marks after values point to notes of the source that are not given here.

The target in experiment [1] is T1, MGL, Ser339Ala (Citrobacter freundii, UniProt Q84AR1, S339A). The format is biochemical. Conditions: for Km / kcat: Ser339Ala MGL, 30°C, pH 8.0, coupled with HOHxoDH or LDH; for specific activity: Ser339Ala MGL samples of 95% purity, 30 mM substrate, pH 8.0. Here is the method: The homogeneity of samples was examined by PAGE electrophoresis under denaturing conditions. During purification, activity was determined in the β-elimination reaction; activity of the final sample was determined in β- and γ-elimination reactions. […] The amount of enzyme that catalyzes the formation of […] of keto acid was defined as the unit of enzymatic activity.
(§1) The kinetic parameters of the γ- and β-elimination reactions were determined at 30°C in the conjugate reaction with HOHxoDH or LDH based on a decrease in NADH absorbance at 340 nm (Δε = 6,220 M^–1cm^–1). The reaction mixtures contained a 100-mM potassium phosphate buffer, pH 8.0, 0.1 mM PLP, 1 mM DTT, 0.2 mM NADH, 70 μg HOHxoDH or 10 U LDH, and variable amounts of the substrate in a total volume of 1 mL. The reaction was initiated by the addition of 10 μg of the enzyme.
(§2) The kinetic parameters were calculated according to the Michaelis–Menten equation using the EnzFitter software. In the calculations, an enzyme subunit molecular weight of 43 kDa was used. The inhibition constants were also determined using the EnzFitter software.

For experiment [2], the system named is MGL, wild type. Conditions: cited from earlier work.
Experiment [3] has as its target T1, MGL, Ser339Ala. Briefly: biochemical. Conditions: for Ki: Ser339Ala MGL, γ-elimination of L-methionine, 30°C, pH 8.0, read-out: K I (inhibition constant); for type of inhibition of the physiological reaction: mutant enzyme (Ser339Ala MGL). It counts as biochemical. The procedure: as §1, §2
The target of experiment [4] is T1, MGL, Ser339Ala. The format is biochemical. Conditions: for kex, α-H (exchange rate of C-α-proton) / kex, β-H (exchange rate of C-β-protons): Ser339Ala MGL, D2O, pD 7.6, 30°C, L-alanine 144.23 mM, L-norleucine 98.04 mM; for Number of exchanged C-α-protons / Number of exchanged C-β-protons: common to wild type and Ser339Ala MGL. The procedure: The kinetics of isotope exchange reactions of the C-α- and C-β-protons for deuteron in inhibitors, catalyzed by the mutant form, was detected using 1H NMR spectroscopy. The reaction was conducted in D2O containing 50 mM potassium phosphate (pD = 7.6), 0.1 mM PLP, and an inhibitor in a total volume of 0.5 mL at 30°C at L-alanine and L-norleucine concentrations of 144.23 mM and 98.04 mM, respectively. The reaction was initiated by adding 0.3–0.7 mg of the enzyme. 1H NMR spectra were recorded at fixed time intervals on a Bruker AMXIII-400 spectrometer at an operating frequency of 400 MHz. The signals of the C-α- and C-β-protons were integrated using the modified Enzkin computer program, which is a part of the XWIN-NMR programs. The kinetic curves of the yields of deuterated products were processed according to the method described in [39]. […]

In experiment [5] the test system is MGL, wild type. Conditions: cited from earlier work. The source holds these as a separate data set.
For experiment [6], the target named is MGL, wild type. More on the design: method as in PMID 21166645. The following applies: cited from earlier work; for Ki: wild type MGL, γ-elimination of L-methionine, read-out: K I (inhibition constant); for type of inhibition of the physiological reaction: wild-type enzyme.
For a further experiment, the target named is wild-type MGL. The following applies: read-out: dissociation constant of the PLP complex; cited from earlier work.
Where [7] appears, read: wild type MGL, substrate of elimination reaction.

As to `NC(CCS)C(=O)O` (racemic) [DL-Hcy], the Km on MGL, Ser339Ala [1] was 3390 ± 340 µM; in the experiment with MGL, wild type [2] (setting [7]), 970 ± 150 µM. Also, the kcat is listed as 0.28 ± 0.009 s^–1 at MGL, Ser339Ala [1] and 8.51 ± 0.41* s^–1 with MGL, wild type [2] (setting [7]).
With `NCC(=O)O` [Gly, glycine], the Ki on MGL, Ser339Ala [3] is 22.9 ± 2.84 mM; at MGL, wild type [6] it was 48.5 ± 4.37 mM. For the same compound, the “type of inhibition of the physiological reaction” value is listed as “competitive inhibitors” on MGL, Ser339Ala [3] and “competitive inhibitors” with MGL, wild type [6]. The “kex, α-H (exchange rate of C-α-proton)” value is 0.078 s⁻¹ on MGL, Ser339Ala [4] and 20.2* s^-1 in the experiment on MGL, wild type [5]. Moreover, the “exchange of the pro-(S) proton” value on MGL, Ser339Ala [4] (mutant form, long incubation in D2O (led to inactivation of the enzyme)) is on record as “unable to detect any exchange”.
In the case of `C[C@H](N)C(=O)O` [L-Ala, L-alanine], the “type of inhibition of the physiological reaction” value on MGL, Ser339Ala [3] is given as “competitive inhibitors”. On MGL, Ser339Ala [4], the “kex, α-H (exchange rate of C-α-proton)” value was determined as 0.387 s⁻¹; the “kex, β-H (exchange rate of C-β-protons)” value turned out to be 0.116 s⁻¹; the “Number of exchanged C-α-protons” value is on record as 1; the “Number of exchanged C-β-protons” value was found to be 3. For the same compound, in the experiment with MGL, wild type [5] (wild type MGL), the “kex, α-H (exchange rate of C-α-proton)” value is listed as 2.71* s^-1 and the “kex, β-H (exchange rate of C-β-protons)” value was 2.63* s^-1. Further, at MGL, wild type [6], the Ki is 3.41 ± 0.4 mM and the “type of inhibition of the physiological reaction” value was “competitive inhibitors”.
As for `CSCC[C@H](N)C(=O)O` [L-Met, L-methionine], the specific activity at MGL, Ser339Ala [1] was determined as 0.31 U/mg. In addition, in the experiment on MGL, wild type [2] (setting [7]), the Michaelis constant (Km) is 700 ± 110 µM and the kcat is recorded as 6.2 ± 0.42* s^–1.
As to `CCCC[C@H](N)C(=O)O` [L-Nle, L-norleucine], at MGL, Ser339Ala [3], the Ki came to 0.89 ± 0.09 mM and the “type of inhibition of the physiological reaction” value is given as “competitive inhibitors”. Also, at MGL, Ser339Ala [4], the “kex, α-H (exchange rate of C-α-proton)” value turned out to be 0.46 s⁻¹; the “kex, β-H (exchange rate of C-β-protons)” value turned out to be 0.12 s⁻¹; the “Number of exchanged C-α-protons” value amounted to 1; the “Number of exchanged C-β-protons” value was 2. In the experiment with MGL, wild type [5] (wild type MGL), the “kex, α-H (exchange rate of C-α-proton)” value is listed as 41.8* s^-1 and the “kex, β-H (exchange rate of C-β-protons)” value is on record as 4.74* s^-1. In addition, at MGL, wild type [6], the Ki was 0.6 ± 0.06 mM and the “type of inhibition of the physiological reaction” value is recorded as “competitive inhibitors”.
Consider `CCC[C@H](N)C(=O)O` [L-Nva, L-norvaline], for which, at MGL, Ser339Ala [3], the Ki came out at 1.7 ± 0.32 mM and the “type of inhibition of the physiological reaction” value is reported as “competitive inhibitors”. At MGL, wild type [6], the Ki is 4.6 ± 0.43 mM and the “type of inhibition of the physiological reaction” value is reported as “competitive inhibitors”.
For the compound `CC[C@H](N)C(=O)O` [L-α-Abu, L-α-aminobutyric acid], the Ki on MGL, Ser339Ala [3] was 4.66 ± 0.51 mM; at MGL, wild type [6], 8.01 ± 0.76 mM. Also, the “type of inhibition of the physiological reaction” value is reported as “competitive inhibitors” at MGL, Ser339Ala [3] and “competitive inhibitors” in the experiment with MGL, wild type [6].
Take `CC(=O)OCC[C@H](N)C(=O)O` [O-Ac-L-Hse, O-acetyl-L-homoserine]: on MGL, Ser339Ala [1], the Km came to 2070 ± 220 µM and the kcat is 0.77 ± 0.011 s^–1. Also, in the experiment on MGL, wild type [2] (setting [7]), the Km was 2910 ± 180 µM and the kcat is 2.1 ± 0.053** s^–1.
On to `CC(=O)OC[C@H](N)C(=O)O` [O-Ac-L-Ser], for which the Km is 16400 ± 1090 µM on MGL, Ser339Ala [1] and 4280 ± 330 µM in the experiment with MGL, wild type [2] (setting [7]). For the same compound, the kcat is 0.047 ± 0.001 s^–1 at MGL, Ser339Ala [1] and 2.13 ± 0.037*** s^–1 in the experiment on MGL, wild type [2] (setting [7]).
For the compound `Cc1ncc(COP(=O)(O)O)c(C=O)c1O` [PLP, pyridoxal 5’-phosphate], the Kd on wild-type MGL is 0.000624 mM.
With `CCSCC[C@H](N)C(=O)O` [S-Et-L-Hcy], at MGL, Ser339Ala [1], the Km came to 540 ± 37 µM and the kcat was determined as 0.16 ± 0.0016 s^–1. In the experiment with MGL, wild type [2] (setting [7]), the Km was 540 ± 10 µM and the kcat is recorded as 6.78 ± 0.02* s^–1.
S-benzyl-L-cysteine [S-Bzl-L-Cys]: the Km on MGL, Ser339Ala [1] is 5760 ± 590 µM; in the experiment with MGL, wild type [2], 180 ± 20 µM. The kcat on MGL, Ser339Ala [1] is 1.81 ± 0.094 s^–1; in the experiment with MGL, wild type [2] (setting [7]), 8.16 ± 0.23* s^–1.
As to S-ethyl-L-cysteine [S-Et-L-Cys], the specific activity at MGL, Ser339Ala [1] worked out at 1.03 U/mg. Further, the Km at MGL, Ser339Ala [1] is 6470 ± 540 µM; in the experiment with MGL, wild type [2], 170 ± 20 µM. Besides, the kcat at MGL, Ser339Ala [1] is 0.67 ± 0.024 s^–1; in the experiment with MGL, wild type [2] (setting [7]), 5.03 ± 0.16* s^–1.
For the compound S-methyl-L-cysteine [S-Met-L-Cys], on MGL, Ser339Ala [1], the Km worked out at 21800 ± 2250 µM and the kcat was 0.41 ± 0.018 s^–1. For the same compound, in the experiment with MGL, wild type [2] (setting [7]), the Km is 710 ± 110 µM and the kcat is 4.6 ± 0.29* s^–1.

One may read the Km as the concentration of substrate that gives half-maximal velocity.
